# System: MV-4-11 cells
# Assay: Gene expression microarray analysis (Affymetrix PrimeView) and GSEA
# Type: cell-based, human
# Parameters: RFU PODN (11730768_x_at) / Fold change /veh PODN (11730768_x_at) / RFU LINC00158 (11744669_a_at) / Fold change /veh LINC00158 (11744669_a_at) / RFU DUSP10 (11751237_a_at) / Fold change /veh DUSP10 (11751237_a_at) / RFU ID3 (11757404_x_at) / Fold change /veh ID3 (11757404_x_at) / RFU PLEKHG5 (11737974_s_at) / Fold change /veh PLEKHG5 (11737974_s_at) / RFU LRRC4B (11730491_at) / Fold change /veh LRRC4B (11730491_at) / RFU GIMAP4 (11747438_a_at) / Fold change /veh GIMAP4 (11747438_a_at) / RFU KRT8 (11758183_x_at) / Fold change /veh KRT8 (11758183_x_at) / RFU CNN1 (11734310_a_at) / Fold change /veh CNN1 (11734310_a_at) / RFU VPS37D (11726825_at) / Fold change /veh VPS37D (11726825_at) / RFU C10orf10 (11716522_x_at) / Fold change /veh C10orf10 (11716522_x_at) / RFU KIR2DL2 /// KIR2DL4 /// KIR2DL5A /// KIR2DL5B /// KIR2DS1 /// KIR2DS2 /// KIR2DS3 /// KIR2DS4 /// KIR3DL3 /// KIR3DL3 /// KIR3DS1 (11738374_at) / Fold change /veh KIR2DL2 /// KIR2DL4 /// KIR2DL5A /// KIR2DL5B /// KIR2DS1 /// KIR2DS2 /// KIR2DS3 /// KIR2DS4 /// KIR3DL3 /// KIR3DL3 /// KIR3DS1 (11738374_at) / RFU C1QL1 (11718748_at) / Fold change /veh C1QL1 (11718748_at) / RFU TMPRSS4 (11747572_a_at) / Fold change /veh TMPRSS4 (11747572_a_at) / RFU HAMP (11756126_x_at) / Fold change /veh HAMP (11756126_x_at) / RFU RNFT2 (11725882_a_at) / Fold change /veh RNFT2 (11725882_a_at) / RFU NR4A2 (11747474_a_at) / Fold change /veh NR4A2 (11747474_a_at) / RFU ABCC12 (11746883_a_at) / Fold change /veh ABCC12 (11746883_a_at) / RFU TMEM136 (11760407_x_at) / Fold change /veh TMEM136 (11760407_x_at) / RFU CLDN22 /// WWC2 (11732394_at) / Fold change /veh CLDN22 /// WWC2 (11732394_at) / RFU HLA-DPB1 (11760878_x_at) / Fold change /veh HLA-DPB1 (11760878_x_at) / RFU SPINT1 (11716480_a_at) / Fold change /veh SPINT1 (11716480_a_at) / RFU GAP43 (11754022_s_at) / Fold change /veh GAP43 (11754022_s_at) / RFU A4GNT (11735810_at) / Fold change /veh A4GNT (11735810_at) / RFU PRB3 (11715151_x_at) / Fold change /veh PRB3 (11715151_x_at) / RFU TUBB4B (11761932_at) / Fold change /veh TUBB4B (11761932_at) / RFU CAPN14 (11732068_a_at) / Fold change /veh CAPN14 (11732068_a_at) / RFU TMCC2 (11721928_a_at) / Fold change /veh TMCC2 (11721928_a_at) / RFU IRGQ (11745062_a_at) / Fold change /veh IRGQ (11745062_a_at) / RFU FAM174B (11720279_a_at) / Fold change /veh FAM174B (11720279_a_at) / RFU TMPRSS4 (11748680_a_at) / Fold change /veh TMPRSS4 (11748680_a_at) / RFU FAM212B (11763350_a_at) / Fold change /veh FAM212B (11763350_a_at) / RFU PLEKHG5 (11743358_a_at) / Fold change /veh PLEKHG5 (11743358_a_at) / RFU ZSCAN30 (11745921_a_at) / Fold change /veh ZSCAN30 (11745921_a_at) / RFU CMKLR1 (11741424_a_at) / Fold change /veh CMKLR1 (11741424_a_at) / RFU LOC101060620 /// MAPK8IP1 (11723275_at) / Fold change /veh LOC101060620 /// MAPK8IP1 (11723275_at) / RFU SPTSSB (11747773_x_at) / Fold change /veh SPTSSB (11747773_x_at) / RFU PRSS12 (11739890_at) / Fold change /veh PRSS12 (11739890_at) / RFU BIN1 (11741810_x_at) / Fold change /veh BIN1 (11741810_x_at) / RFU WNT11 (11732464_a_at) / Fold change /veh WNT11 (11732464_a_at) / RFU C10orf10 (11716521_a_at) / Fold change /veh C10orf10 (11716521_a_at) / RFU C5orf56 (11738089_at) / Fold change /veh C5orf56 (11738089_at) / RFU CYB561 (11721691_x_at) / Fold change /veh CYB561 (11721691_x_at) / RFU ANKRD19P (11752326_a_at) / Fold change /veh ANKRD19P (11752326_a_at) / RFU OR2T12 /// OR2T33 /// OR2T8 (11738714_s_at) / Fold change /veh OR2T12 /// OR2T33 /// OR2T8 (11738714_s_at) / RFU VCAN (11748164_a_at) / Fold change /veh VCAN (11748164_a_at) / RFU JSRP1 (11732532_at) / Fold change /veh JSRP1 (11732532_at) / RFU KRTAP10-11 (11738290_x_at) / Fold change /veh KRTAP10-11 (11738290_x_at) / RFU MYO3A (11730013_a_at) / Fold change /veh MYO3A (11730013_a_at) / RFU EBF3 (11725865_a_at) / Fold change /veh EBF3 (11725865_a_at) / RFU CAMK2N1 (11719241_x_at) / Fold change /veh CAMK2N1 (11719241_x_at) / RFU C5orf56 (11738088_a_at) / Fold change /veh C5orf56 (11738088_a_at) / RFU OLFML3 (11715873_a_at) / Fold change /veh OLFML3 (11715873_a_at) / RFU LOC100653217 /// NTM (11731650_a_at) / Fold change /veh LOC100653217 /// NTM (11731650_a_at) / RFU MAPK11 (11762145_a_at) / Fold change /veh MAPK11 (11762145_a_at) / RFU FIZ1 (11724087_x_at) / Fold change /veh FIZ1 (11724087_x_at) / RFU OASL (11726364_x_at) / Fold change /veh OASL (11726364_x_at) / RFU SOX15 (11748057_x_at) / Fold change /veh SOX15 (11748057_x_at) / RFU CD79A (11719716_a_at) / Fold change /veh CD79A (11719716_a_at) / RFU HIST1H1D (11736915_at) / Fold change /veh HIST1H1D (11736915_at) / RFU CASKIN2 (11723855_a_at) / Fold change /veh CASKIN2 (11723855_a_at) / RFU LOC730098 (11760151_x_at) / Fold change /veh LOC730098 (11760151_x_at) / RFU OR4N2 (11742367_at) / Fold change /veh OR4N2 (11742367_at) / RFU PRRT2 (11749266_a_at) / Fold change /veh PRRT2 (11749266_a_at) / RFU SNX32 (11753110_a_at) / Fold change /veh SNX32 (11753110_a_at) / RFU CDHR5 (11726645_a_at) / Fold change /veh CDHR5 (11726645_a_at) / RFU RCAN1 (11760418_a_at) / Fold change /veh RCAN1 (11760418_a_at) / RFU FAM167A (11723789_a_at) / Fold change /veh FAM167A (11723789_a_at) / RFU FAM26E (11764081_at) / Fold change /veh FAM26E (11764081_at) / RFU ISYNA1 (11749810_s_at) / Fold change /veh ISYNA1 (11749810_s_at) / RFU ACY1 (11761880_at) / Fold change /veh ACY1 (11761880_at) / RFU 11764098_at / Fold change /veh 11764098_at / RFU SAMD14 (11745864_x_at) / Fold change /veh SAMD14 (11745864_x_at) / RFU NPB (11741838_a_at) / Fold change /veh NPB (11741838_a_at) / RFU TMPRSS6 (11731388_a_at) / Fold change /veh TMPRSS6 (11731388_a_at) / RFU KRTAP10-2 (11738614_at) / Fold change /veh KRTAP10-2 (11738614_at) / RFU ARHGAP8 /// PRR5-ARHGAP8 (11727945_x_at) / Fold change /veh ARHGAP8 /// PRR5-ARHGAP8 (11727945_x_at) / RFU KRTAP5-7 /// NADSYN1 (11734609_at) / Fold change /veh KRTAP5-7 /// NADSYN1 (11734609_at) / RFU RASL12 (11751679_a_at) / Fold change /veh RASL12 (11751679_a_at) / RFU CDKN2B (11736163_a_at) / Fold change /veh CDKN2B (11736163_a_at) / RFU PRF1 (11729649_at) / Fold change /veh PRF1 (11729649_at) / RFU, ZNF638 /// ZNF638-IT1 / Fold change vs veh, ZNF638 /// ZNF638-IT1 / RFU, PANK3 / Fold change vs veh, PANK3 / RFU, SH3YL1 / Fold change vs veh, SH3YL1 / RFU, ZEB2 / Fold change vs veh, ZEB2 / RFU, NRIP1 / Fold change vs veh, NRIP1 / RFU, PTTG1IP / Fold change vs veh, PTTG1IP / RFU, CAPN2 / Fold change vs veh, CAPN2 / RFU, MED14 / Fold change vs veh, MED14 / RFU, SNORA58 / Fold change vs veh, SNORA58 / RFU, C1orf63 / Fold change vs veh, C1orf63 / RFU, LRRFIP1 / Fold change vs veh, LRRFIP1 / RFU, NDUFAF7 / Fold change vs veh, NDUFAF7 / RFU, SLC12A2 / Fold change vs veh, SLC12A2 / RFU, IBTK / Fold change vs veh, IBTK / RFU, ESF1 / Fold change vs veh, ESF1 / Fold change vs veh, TMEM50B / RFU, TAOK1 / Fold change vs veh, TAOK1 / RFU, ACBD3 / Fold change vs veh, ACBD3 / RFU, TMA16 / Fold change vs veh, TMA16 / RFU, RWDD3 / Fold change vs veh, RWDD3 / RFU, BCAT1 / Fold change vs veh, BCAT1 / RFU, EDEM3 / Fold change vs veh, EDEM3 / RFU, TMEM33 / Fold change vs veh, TMEM33 / RFU, WDR75 / Fold change vs veh, WDR75 / RFU, AHCTF1 / Fold change vs veh, AHCTF1 / RFU, TFRC / Fold change vs veh, TFRC / RFU, ZDHHC17 / Fold change vs veh, ZDHHC17 / RFU, NOM1 / Fold change vs veh, NOM1 / RFU, ARL8B / Fold change vs veh, ARL8B / RFU, ZBTB11 / Fold change vs veh, ZBTB11 / RFU, TAMM41 / Fold change vs veh, TAMM41 / RFU, KIAA1704 /// LOC100996395 / Fold change vs veh, KIAA1704 /// LOC100996395 / RFU, ING1 / Fold change vs veh, ING1 / RFU, TRMT61B / Fold change vs veh, TRMT61B / RFU, FUBP3 / Fold change vs veh, FUBP3 / RFU, TP53 / Fold change vs veh, TP53 / RFU, TNKS2 / Fold change vs veh, TNKS2 / RFU, ZFP14 / Fold change vs veh, ZFP14 / RFU, ACTR2 / Fold change vs veh, ACTR2 / RFU, PPP3R1 / Fold change vs veh, PPP3R1 / RFU, PIK3R1 / Fold change vs veh, PIK3R1 / RFU, HNRNPA1 / Fold change vs veh, HNRNPA1 / RFU, RNF170 / Fold change vs veh, RNF170 / RFU, ZNF28 / Fold change vs veh, ZNF28 / RFU, RNGTT / Fold change vs veh, RNGTT / RFU, OGT / Fold change vs veh, OGT / RFU, BRD1 / Fold change vs veh, BRD1 / RFU, MARS / Fold change vs veh, MARS / RFU, ZNF655 / Fold change vs veh, ZNF655 / RFU, FAHD1 / Fold change vs veh, FAHD1 / RFU, BDP1 / Fold change vs veh, BDP1 / RFU, LRRCC1 / Fold change vs veh, LRRCC1 / RFU, ARID1A / Fold change vs veh, ARID1A / RFU, ZNF146 / Fold change vs veh, ZNF146 / RFU, ZNF330 / Fold change vs veh, ZNF330 / RFU, GPN3 / Fold change vs veh, GPN3 / RFU, C9orf123 / Fold change vs veh, C9orf123 / RFU, N4BP2L2 / Fold change vs veh, N4BP2L2 / RFU, ARFIP1 / Fold change vs veh, ARFIP1 / RFU, FAM179B / Fold change vs veh, FAM179B / RFU, BCL10 / Fold change vs veh, BCL10 / RFU, UHRF1BP1L / Fold change vs veh, UHRF1BP1L / RFU, BET1 / Fold change vs veh, BET1 / RFU, CNOT2 / Fold change vs veh, CNOT2 / RFU, ZNF268 / Fold change vs veh, ZNF268 / Fold change vs veh, ZNF507 / RFU, DGCR2 / Fold change vs veh, DGCR2 / RFU, WDSUB1 / Fold change vs veh, WDSUB1 / Fold change vs veh, HSP90B1 /// MIR3652 / RFU, ADSS / Fold change vs veh, ADSS / RFU, GK / Fold change vs veh, GK / RFU, ZNF148 / Fold change vs veh, ZNF148 / RFU, TAF9 / Fold change vs veh, TAF9 / RFU, SLC1A5 / Fold change vs veh, SLC1A5 / RFU, SLMO2 / Fold change vs veh, SLMO2 / RFU, ABCC4 / Fold change vs veh, ABCC4 / RFU, LOC101060439 /// RAP1B / Fold change vs veh, LOC101060439 /// RAP1B / RFU, RFX7 / Fold change vs veh, RFX7 / RFU, GTPBP10 / Fold change vs veh, GTPBP10 / RFU, CNEP1R1 / Fold change vs veh, CNEP1R1 / RFU, BIVM-ERCC5 /// ERCC5 / Fold change vs veh, BIVM-ERCC5 /// ERCC5 / RFU, ILF3 / Fold change vs veh, ILF3 / RFU 11762660_at / Fold change /veh 11762660_at / RFU VCAN (11757783_s_at) / Fold change /veh VCAN (11757783_s_at) / RFU DDX43 (11728927_at) / Fold change /veh DDX43 (11728927_at) / RFU KRT8 (11758188_x_at) / Fold change /veh KRT8 (11758188_x_at) / RFU NKD1 (11759106_at) / Fold change /veh NKD1 (11759106_at) / RFU SRD5A1 (11742802_a_at) / Fold change /veh SRD5A1 (11742802_a_at) / RFU TPSAB1 /// TPSB2 (11721975_s_at) / Fold change /veh TPSAB1 /// TPSB2 (11721975_s_at) / RFU GSTM3 (11746129_a_at) / Fold change /veh GSTM3 (11746129_a_at) / RFU IL23R (11737362_x_at) / Fold change /veh IL23R (11737362_x_at) / RFU TMEM51 (11727254_a_at) / Fold change /veh TMEM51 (11727254_a_at) / RFU PIWIL2 (11732686_x_at) / Fold change /veh PIWIL2 (11732686_x_at) / RFU ORM1 (11744905_x_at) / Fold change /veh ORM1 (11744905_x_at) / RFU CCDC152 (11743942_at) / Fold change /veh CCDC152 (11743942_at) / RFU ECM1 (11717891_a_at) / Fold change /veh ECM1 (11717891_a_at) / RFU IL23R (11748794_a_at) / Fold change /veh IL23R (11748794_a_at) / RFU TNFAIP8L3 (11732012_x_at) / Fold change /veh TNFAIP8L3 (11732012_x_at) / RFU MBOAT4 (11741988_at) / Fold change /veh MBOAT4 (11741988_at) / RFU 11764193_at / Fold change /veh 11764193_at / RFU TMEM53 (11763286_at) / Fold change /veh TMEM53 (11763286_at) / RFU MAGEB2 (11727129_at) / Fold change /veh MAGEB2 (11727129_at) / RFU TMEM200A (11744735_a_at) / Fold change /veh TMEM200A (11744735_a_at) / RFU CCDC152 (11751479_a_at) / Fold change /veh CCDC152 (11751479_a_at) / RFU FAM211A (11726209_a_at) / Fold change /veh FAM211A (11726209_a_at) / RFU RGS16 (11746705_a_at) / Fold change /veh RGS16 (11746705_a_at) / RFU VCAN (11755009_s_at) / Fold change /veh VCAN (11755009_s_at) / RFU RHOB (11743442_s_at) / Fold change /veh RHOB (11743442_s_at) / RFU RGS16 (11720943_a_at) / Fold change /veh RGS16 (11720943_a_at) / RFU RGS16 (11720944_at) / Fold change /veh RGS16 (11720944_at) / RFU, VPS4B / Fold change vs veh, VPS4B / RFU, CREB1 / Fold change vs veh, CREB1 / RFU, DNAJC13 / Fold change vs veh, DNAJC13 / RFU, GNAQ / Fold change vs veh, GNAQ / RFU, CDK5R1 / Fold change vs veh, CDK5R1 / RFU, ZRANB3 / Fold change vs veh, ZRANB3 / RFU, CUL4A / Fold change vs veh, CUL4A / RFU, CCNY / Fold change vs veh, CCNY / RFU, UFL1 / Fold change vs veh, UFL1 / RFU, COG3 / Fold change vs veh, COG3 / RFU, DIAPH2 / Fold change vs veh, DIAPH2 / RFU, SKA2 / Fold change vs veh, SKA2 / RFU, AFF3 / Fold change vs veh, AFF3 / RFU, LMF1 / Fold change vs veh, LMF1 / RFU, IPO11 / Fold change vs veh, IPO11 / RFU, DFFB / Fold change vs veh, DFFB / RFU, FOXP1 / Fold change vs veh, FOXP1 / RFU, CARD8 / Fold change vs veh, CARD8 / RFU, STRN3 / Fold change vs veh, STRN3 / RFU, ADK / Fold change vs veh, ADK / RFU, RASSF2 / Fold change vs veh, RASSF2 / RFU, WIPF1 / Fold change vs veh, WIPF1 / RFU, LARP1B / Fold change vs veh, LARP1B / RFU, RASA1 / Fold change vs veh, RASA1 / RFU, RB1 / Fold change vs veh, RB1 / RFU, PPFIA1 / Fold change vs veh, PPFIA1 / RFU, MAT2A / Fold change vs veh, MAT2A / RFU, CCT5 / Fold change vs veh, CCT5 / RFU, WDR92 / Fold change vs veh, WDR92 / RFU, CUX1 / Fold change vs veh, CUX1 / RFU, TTC7A / Fold change vs veh, TTC7A / RFU, TMEM135 / Fold change vs veh, TMEM135 / RFU, DEPTOR / Fold change vs veh, DEPTOR / RFU, CPM / Fold change vs veh, CPM / RFU, DNAJB6 / Fold change vs veh, DNAJB6 / RFU, CACNA2D3 / Fold change vs veh, CACNA2D3 / RFU, DTX4 / Fold change vs veh, DTX4 / RFU, TFCP2 / Fold change vs veh, TFCP2 / RFU, GMCL1 /// GMCL1P1 / Fold change vs veh, GMCL1 /// GMCL1P1 / RFU, AEBP2 / Fold change vs veh, AEBP2 / RFU, SNHG1 /// SNORD22 /// SNORD25 /// SNORD26 /// SNORD27 /// SNORD28 /// SNORD29 /// SNORD31 / Fold change vs veh, SNHG1 /// SNORD22 /// SNORD25 /// SNORD26 /// SNORD27 /// SNORD28 /// SNORD29 /// SNORD31 / Fold change (Aza/veh), C12orf56 (ProbeSet 11735607_a_at) / Fold change (ACY-1035/veh), C12orf56 (ProbeSet 11735607_a_at) / Fold change (Aza/veh), FGFR1OP (ProbeSet 11751329_s_at) / Fold change (ACY-1035/veh), FGFR1OP (ProbeSet 11751329_s_at) / Fold change (Aza/veh), VPS36 (ProbeSet 11739960_a_at) / Fold change (ACY-1035/veh), VPS36 (ProbeSet 11739960_a_at) / RFU SYPL1 (11715823_x_at) / Fold change /veh SYPL1 (11715823_x_at) / RFU IGFBP7 (11715501_s_at) / Fold change /veh IGFBP7 (11715501_s_at) / RFU REEP3 (11722064_at) / Fold change /veh REEP3 (11722064_at) / RFU IGLL1 (11728026_x_at) / Fold change /veh IGLL1 (11728026_x_at): dose or concentration left out as unconfirmed
# Conditions: ProbeSet 11721521_at; LIST B
smiles,measurement,value
Nc1ccc(-c2cccs2)cc1NC(=O)c1ccc2c(c1)cc(C1CC1)n2CCN1CCOCC1 [ACY-1035],"Fold change vs veh, ZDHHC17",0.90

# Source: article PMC5218480 (PLoS ONE, 2017)
